Measurements published in patent US11248995B2, “Hydrogel encapsulation of living organisms for long-term microscopy” (priority 2017, dated 2022).
Structures can show the parent of a compound that is named as a salt.

What was measured:
AWA activity = assay: Nemadipine-A treatment of multi-well plate embedded animals, optogenetically-evoked calcium responses; type: in vivo, C. elegans; conditions: 10, 50, 100 uM vs 1% DMSO control, stimulated every 10 min for 24 hours; dose dependence
Method: A small volume (10 uL) of PEG hydrogel solution (10% with 0.5×S. basal) with photoinitiator was pipetted into each PCR tube (one tube per one well). Young adult animals (CX16573) were transferred into the hydrogel solution by worm pick (up to 40 or more). The hydrogel and worm solution was transferred from one PCR tube to the bottom of one well of a 384 well plate, and repeated for as many PCR tubes prepared. The 384 well plate was placed into −20° C. freezer for no more than 10 min, then immediately placed on the 308 nm light source to crosslinking for no more than 45 s. Then, a small volume (60 uL) of 1 mM ATR in water was pipetted into crosslinked wells, covered, placed in the dark, and allowed to incubate for at least 1 hr, or up to 24 hrs. Animals were then imaged on a custom designed microscope and optical configuration allowing for both red-light excitation and blue-light excitation sent through the objective, all set by the initial experimental settings. Red light pulse durations, well position, cycle number and cycle delay conditions were set by a custom MicroManager script, and executed.
After crosslinking and before all-trans retinal (ATR) transfer to each well, solutions of 10 μM, 50 μM, and 100 μM nemadipine-A to a final concentration of 1% DMSO in 1 mM ATR were prepared. A control well containing only 1% DMSO in 1 mM ATR was prepared as well. […]

AWA sensory neuron pair = assay: Microfluidic chemical pulse stimulation of hydrogel-embedded C. elegans, GCaMP light sheet imaging; type: in vivo; conditions: 5-s and 10-s pulses
Excerpt: Wild-type C. elegans expressing GCaMP in the AWA sensory neuron pair were encapsulated in a hydrogel disk above a 100 μm wide microfluidic channel. External tubing connections and valves delivered 1, 5, or 10 second long pulses of chemical flow beneath the hydrogel disk. Small molecule chemicals (MW<500 Da) diffuse rapidly through the hydrogel, typically in under 1 second, to reach the encapsulated organism(s).

C. elegans [1] = assay: Quantification of movement of hydrogel-embedded animals; type: in vivo
Method: Young adult QW1217 worms with pan-neuronal expression of nuclear-localized mCherry were embedded in 10% and 20% PEG hydrogels (3 μL with 100 μm spacer, 0.1% I2959, 20 s exposure using a 312 nm UV source). Worms received either no pretreatment, exposure to hypoosmotic (diH2O, 0 mOsm) or hyperosmotic buffers (0.5 M glycerol in diH2O, 500 mOsm or 1.5×S-Basal, 420 mOsm) for 10 min, or cooling in a −20° C. freezer or in contact with ice for 1-3 min prior to crosslinking. PEG hydrogel solutions were prepared in diH2O or S-Basal buffer, and some contained the paralytic reagents 25 mM sodium azide (Massie et al., 2003) or 1 mM tetramisole hydrochloride (Sigma) (Larsch et al., 2013). Other hydrogel solutions were prepared in 500 mM glycerol or 1.5×S-Basal hyperosmotic buffers. After crosslinking, all hydrogels were submerged in an aqueous solution of either S-Basal, diH20, sodium azide (25 mM) or tetramisole (1 mM) for imaging. Videos were captured with a Hamamatsu Orca-Flash 4.0 camera at 1 frame/sec for 3 min on a Zeiss AxioObserver inverted epifluorescence microscope with a 20×/0.5 NA objective.
Animal movement was analysed by comparing frame-to-frame image differences. Movement index is described using the equation M.I.=ΔIROI/IROI−IBG, where ΔIROI represents the difference in pixel intensity between consecutive frames, averaged across a region of interest (ROI), IROI represents the average intensity of the ROI, and IBG represents the average intensity of a Background region. […] First, the absolute value differences between each pair of consecutive frame averaged pixel intensities were calculated. Next, the difference image stack was smoothed (average of its 3×3 neighborhood). To reduce the contribution of pixel noise, a value of 10 (corresponding to average pixel noise) was subtracted uniformly from each frame and negative values were set to 0. Regions of Interest (ROIs) were selected over the head (nerve ring) and ventral cord and a background region (BG). The movement index was calculated as […], where ΔIROI is the mean of difference images across the ROI, and ΔIROI and IBG, are the mean intensity of the ROI and background regions for the first frame, respectively. Here, identical sequential frames would have a M.I. of zero, whereas images that have changes in position, rotation, focus, or intensity have increasing M.I. values.
Movement in the image plane was quantified by tracking cell nucleus position over 3 minutes. Individual neurons were tracked using NeuroTracker (Larsch et al., 2013) and centroid positions were used to determine the range of axial movement by the animal.

C. elegans [2] = conditions: 25 mM sodium azide, agarose pad
Method: For hydrogel encapsulation, 5 μL of a 10% PEG hydrogel with 0.1% I2959 containing late L1/L2 stage animals was placed on a fluorinated glass slide with 50 μm thick tape spacers, polymerized with 312 nm UV light, and imaged on an upright Zeiss Axioskop microscope with a 100×/1.4 NA objective using DIC optics. Images were captured every hour for 12 hours without movement of the sample. For comparison, animals were mounted onto conventional agarose pads with chemical or physical restraint. […] Animals were picked into this droplet and a cover slip was placed on top before imaging. Alternatively, a 0.25-0.5 μL drop of polystyrene nanobeads (100 nm, Polysciences, Inc.) was placed on a 10% agarose pad prior to adding animals, a cover slip, and imaging.

[3] = test system: AWA chemosensory neuron calcium responses; assay: Automated small-molecule screening of optogenetically-evoked calcium activity suppressors (LOPAC library); type: in vivo, C. elegans; conditions: 10 μM, 1% DMSO, about 18 hours exposure; beyond mean ± 3 standard deviations
Method: For all well plate experiments, equal parts of 20% PEGDA (0.1% Irgacure) was added to a synchronized animal population in M9, resulting in ˜5 an/μL, 10% PEGDA, 0.05% Irgacure, and 0.5×M9. […] Both procedures used repeated mixing (4-5×) to maintain an even animal suspension during transfer. The animal-containing multiwell plate was transiently cooled for 10 min at −20° C. to settle animals at the bottom of the well, then immediately exposed to 308 nm UV light to photo-crosslink and embed the animals. Single wells can also be prepared by standard picking and transfer of animals to a final 10% gel solution (using PCR tubes), depending on experimental design or desired throughput.
Aliquoted LOPAC drug library plates were received from the UMMS small-molecule screening facility as 16 individual 96-well plates containing 3 nmol of compound per well (3 μL of 1 mM in 100% DMSO), stored at −80° C. until use. […]
A suite of custom ImageJ macros was developed for automated neuron selection and trace recording (aNT), or to manually select neurons (neuronPos) and then record calcium intensity in each well across all wells and cycles automatically (NT). […] Local background subtracted fluorescence (F) was calculated as F=(FR−Fbg).

[4] = hyper-osmotic solution (0.5 M glycerol 500 mOsm or 1.5x S-Basal 420 mOsm) 10 min prior to or during crosslinking, imaged in S-Basal buffer

## CCOC(=O)C1=C(C)NC(C)=C(C(=O)OCC)C1c1c(F)c(F)c(F)c(F)c1F [Nemadipine-A]
AWA activity
  Peak calcium response (change in fluorescence) of AWA: reduction in peak response

## CC(=O)C(C)=O [diacetyl]
AWA sensory neuron pair
  AWA neuron response (relative integrated fluorescence) to odor stimulation: stimulated one of the two neurons

## OCC(O)CO [glycerol]
C. elegans [1]; [4]
  Movement index (M.I.): 0.02±0.007
  Range of movement over 3 min: 8±7 μm

## [N-]=[N+]=[N-] [sodium azide]
C. elegans [2]
  Cell death in paralyzed animals: characteristics of necrotic cell death after 6 hours
C. elegans [1]; 20% PEG hydrogels, paralytic vs no paralytic, P<0.0001
  Reduction of movement index: 5 fold
C. elegans [1]; C. elegans embedded in 20% PEG hydrogels, mean over 3 min, 25 mM sodium azide or 1 mM tetramisole during gelation or transiently after encapsulation, hydrogel alone without paralytic
  Movement index (M.I.): 0.07±0.01
C. elegans [1]; C. elegans embedded in 20% PEG hydrogels, 25 mM sodium azide or 1 mM tetramisole, hydrogel alone without paralytic
  Movement (displacement range) over 3 minutes: 18 μm

## c1ccc(C2CN3CCSC3=N2)cc1 (stereo not drawn) [tetramisole, tetramisole hydrochloride]
C. elegans [1]; in vivo
  Movement (displacement range) over 3 minutes: 19 μm
  Movement index (M.I.): 0.06±0.02
  Reduction of movement index: 5 fold

## ivermectin
[3]
  Screen result: relative peak ΔF/F0 calcium response, fold change cycle 4 to 1: positive hits
